First: N#Cc1nn(-c2c(Cl)cc(C(F)(F)F)cc2Cl)c(-n2ccnc2)c1S(=O)(=O)C(F)(F)F
Second: Cc1cc(Oc2c(Cl)cc(C(F)(F)F)cc2Cl)nn1C(N)=O
The melting point of the first is higher: 214 to 215 °C for the first, 152 to 154 °C for the second.

First: O=C1CCC(N2Cc3c(OCc4ccc(CN5CCc6ncccc6C5)cc4)cccc3C2=O)C(=O)N1 (configuration not stated)
Second: C[C@@H]1CNC[C@H](C)N1Cc1ccc(COc2cccc3c2CN(C2CCC(=O)NC2=O)C3=O)cc1 (some centres not stated)
The melting point of the first is lower: 163 to 165 °C for the first, 253 to 255 °C for the second.

First: CC=Cc1nc2c(C(F)(F)F)cccc2c(O)c1C(=O)Nc1nccs1
Second: O=C(Nc1ccc(S(=O)(=O)C(F)(F)F)cc1Cl)c1cc(Cl)c2ccccc2c1O
The melting point of the first is higher: 265 °C for the first, 234 °C for the second.

Compared with `CC(C)(C)c1ccc(/C=C/C(=O)Nc2ccc3ncoc3c2)cc1`, `COC(=O)c1ccc(Cn2c(C)nc3ccccc32)cc1` is lower in melting point: 147 to 148 °C for the first, 100 to 101 °C for the second.

First: CCS(=O)(=O)N(CCN(C)C(C)=O)c1ccc(N)cc1
Second: CC(C)(C)NCC(O)COc1ccc(N)cc1 (configuration not stated)
The melting point of the first is higher: 140 °C for the first, 125 to 127 °C for the second.

Compared with `CCOC(=O)c1[nH]c2cc3c(sc4ccccc43)c(C)c2c1C`, `CCOC(=O)c1cn2c3c(ccc(C)c3c1=O)CCC2C` (configuration not stated) is lower in melting point: 191 to 193 °C for the first, 106 to 108 °C for the second.

Going from `N#CC(Cc1cccc2c1OCO2)C(=O)O` (configuration not stated) to `CN(C)C1=CC(=O)c2ccccc2OC1`, the melting point rises from 118 °C to 136 °C.

Compared with `CC1CCC(C(C)C)C(c2ccc3c(c2)C(c2ccccc2)(C(F)(F)F)c2cc(C4CC(C)CCC4C(C)C)ccc2O3)C1` (configuration not stated), `NC1=NC(c2ccc(OC(F)F)cc2)(c2cccc(-c3cccnc3F)c2)C2=NCC3(CCC3)CN12` (configuration not stated) is higher in melting point: 150 to 151 °C for the first, 220 to 226 °C for the second.

First: Cc1ccc(N2CCN(CCCc3[nH]nc4c3CCC4)CC2)cc1
Second: CN1CCN(Cc2cc(-c3ccc4c(c3)CCO4)nn(CC=Cc3ccc(Cl)cc3)c2=O)CC1
The melting point of the first is lower: 101 to 102 °C for the first, 112 to 113 °C for the second.

First: CC1(C)CC(=O)c2cc(OCc3ccccc3)ccc2O1
Second: COc1ccc(CCN2C(=O)OC3(CCN(Cc4ccccc4)CC3)C2(C)O)cc1OC (configuration not stated)
The melting point of the first is lower: 105 to 107 °C for the first, 111 to 120 °C for the second.

Compared with `COc1cc(OC)nc(NC(=O)NS(=O)(=O)c2c(Cl)cccc2Cn2cncn2)n1`, `CCc1cccc(C)c1CNc1cc(C(N)=O)nc2c1nc(C)n2C` is higher in melting point: 220 to 221 °C for the first, 237 to 239 °C for the second.

`COc1ccc(CCCC(=O)O)cc1NC(=O)C[C@H]1O[C@H](c2cccc(OC)c2OC)c2cc(Cl)ccc2N(CC(C)(C)CO)C1=O` and `COc1ccc(Cc2cc3cccc(-c4cccc(C(=O)NCCN5CCCC5)c4)c3o2)cc1OC` cannot be ordered by melting point: 119 to 121 °C for the first, 119 to 120 °C for the second.

First: CN1CCN=C(c2ccccc2)c2cc(C#N)ccc21
Second: COc1ccc(-c2nc(N)sc2CCN2CC=C(c3ccccc3)CC2)cc1
The melting point of the first is lower: 149 to 150 °C for the first, 163 °C for the second.

Compared with `CCOC(=O)c1cc(C=O)[nH]n1`, `CCOC(=O)Cc1nsc2ccc([N+](=O)[O-])cc12` is lower in melting point: 133 to 134 °C for the first, 91 to 92 °C for the second.

First: CC#CCOc1ccc(SC(C(=O)NO)c2ccc(F)cc2)cc1 (configuration not stated)
Second: O=C(CCCc1cccs1)NC(Cc1ccc(C(F)(F)F)cc1)C(=O)c1ccc(F)cc1 (configuration not stated)
The melting point of the first is lower: 91.1 °C for the first, 123 to 124 °C for the second.

Compared with `O=C(O)[C@H](Cc1ccc(-c2ccccc2)cc1)NCP(=O)(Oc1ccccc1)Oc1ccccc1`, `CC(=CC(=O)c1ccccc1)NC(Cc1ccc(-c2cccc(CNCC(=O)c3ccccc3)c2)cc1)C(=O)O` (configuration not stated) is higher in melting point: 118 to 119 °C for the first, 136 °C for the second.

First: CC(C)(NC(=O)Oc1ccc([N+](=O)[O-])cc1)C(F)(F)F
Second: CC(C)(C)OC(=O)NC(C)(C)c1ccc(C(=O)CC#N)cc1
The melting point of the first is lower: 77 to 80 °C for the first, 122 to 123 °C for the second.

First: COc1ccc(C=Cc2ccc(C)c(Cl)c2)c(Cl)c1
Second: COc1ccc(-c2csc(N)n2)cc1
The melting point of the first is lower: 77 to 79 °C for the first, 194 to 205 °C for the second.

First: CN1CCN(c2nc(Nc3cccc(NS(C)(=O)=O)c3)nc3[nH]cnc23)CC1
Second: CN1C/C(=C/C(=O)Nc2ccc(Cl)nn2)C[C@@H]2c3cccc4[nH]cc(c34)C[C@H]21
The melting point of the first is lower: 148 to 151 °C for the first, 242 to 243 °C for the second.

First: CCNC(=S)N1CCN([C@H](C)[C@](O)(Cn2cncn2)c2ccc(F)cc2F)CC1
Second: Cc1cc(N(C)CC(=O)N2CCN(Cc3ccccc3)CC2)ccc1Oc1ccc(NC(=O)c2ccc(C(F)(F)F)cc2)cn1
The melting point of the first is lower: 96 to 98 °C for the first, 112 to 113 °C for the second.

First: Cc1c(C(=O)Nc2ccc(N3CCC(N4CCOCC4)CC3)c(C#N)c2)cnn1-c1ccc(I)cc1
Second: CCOc1ccc(-c2ccc3c(c2)C=C(C(=O)Nc2ccc(CN(C)C4CCOCC4)cc2)CCS3(=O)=O)cc1Cl
The melting point of the first is higher: 280 °C for the first, 201 to 204 °C for the second.

First: O=C1CCC(c2ccccc2)(c2ccccc2)[C@@H]2CN(C(=O)Cc3ccccc3O)C[C@H]12 (racemic)
Second: O=C(CN1c2ccccc2Cn2c1nc(-c1ccncn1)cc2=O)c1ccccc1
The melting point of the first is lower: 232 °C for the first, 263 to 265 °C for the second.

Compared with `CC1(C)Oc2ccncc2[C@@H](N2CCCC2=O)[C@@H]1O` (relative stereo), `Cc1ccc2c(c1)C(O)(c1ccccn1)CC(C)(C)CO2` (configuration not stated) is lower in melting point: 253 °C for the first, 126 °C for the second.

Compared with `CNC(=O)N(O)C(C)C#Cc1ccc(C)cc1` (configuration not stated), `Cc1ccc2c(c1)c(=O)c(S(C)=O)nn2C` (configuration not stated) is higher in melting point: 137 to 138 °C for the first, 173 to 175 °C for the second.

First: CN1CC(CO)CC2(OCCO)c3cccc4[nH]cc(c34)CC12 (configuration not stated)
Second: Nc1cccc2c1NC(=O)C2
The melting point of the first is lower: 178 to 180 °C for the first, 248 to 251 °C for the second.

First: CC(=O)N[C@H]1C[C@H](C)N(C(=O)OC(C)(C)C)C1
Second: COc1cccc2c1C(=O)N1CCC[C@H]1c1c(C(=O)OC(C)(C)C)ncn1-2
The melting point of the first is lower: 108 to 110 °C for the first, 200 to 201 °C for the second.

First: Cc1nc(-c2ccc(Cl)cc2)c(CBr)o1
Second: CC1=C(c2ccc(O)cc2)C(=O)c2c(O)cc(O)cc21
The melting point of the first is lower: 75 to 76 °C for the first, 126 to 129 °C for the second.

First: COc1ccc(C(=O)N2CCN(c3c(C)c(C)c4c(c3C)C(c3ccc(C)cc3)C(C)(C)O4)CC2)cc1 (configuration not stated)
Second: Cc1c(NC(=O)c2ccc(-c3ccc(F)cc3)cc2)ccc2cc(C(C)N3CCCCC3)cnc12 (configuration not stated)
The melting point of the first is lower: 163 to 165 °C for the first, 168 to 170 °C for the second.

First: COC(=O)c1cccn1-c1cc2[nH]c(=O)c(=O)n(C3CCCCC3)c2cc1[N+](=O)[O-]
Second: COC(=O)C1CCN2C(=O)C(=O)c3cc(Br)cc1c32 (configuration not stated)
The melting point of the first is higher: 211 to 212 °C for the first, 150 to 151 °C for the second.

Compared with `O=C(Nc1ccc2c(c1)NCCC2)c1cc2cc(C(F)(F)F)ccc2n1Cc1cccc(F)c1`, `CCCCc1nn(-c2ccccc2C(F)(F)F)c(=O)n1Cc1ccc(-c2cc(CCC)ccc2S(=O)(=O)NC(=O)c2ccccc2Cl)cc1F` is lower in melting point: 203 to 204 °C for the first, 79 to 82 °C for the second.

Compared with `CS(=O)(=O)Nn1c(=O)[nH]c2cc(C(F)(F)F)c(-n3cnc(C(F)(F)F)c3)cc2c1=O`, `Cn1c(C(F)(F)F)cc(=O)n(-c2ccc3snc(COCC(=O)NS(C)(=O)=O)c3c2)c1=O` is higher in melting point: 144 to 147 °C for the first, > 240 °C for the second.

Compared with `OCc1ccc2c(c1)ncn2Cc1ccccc1`, `CN1CN(C)c2nc3n(Cc4ccccc4)c(=O)c(Cc4ccccc4)c(O)n3c2C1=O` is higher in melting point: 148 to 150 °C for the first, 176 to 179 °C for the second.

Compared with `CON(C)C(=O)c1cc(S(N)(=O)=O)sc1Cl`, `COc1nc2cc([N+](=O)[O-])c(C)c(C(=O)N(C)C)c2nc1OC` is lower in melting point: 223 to 225 °C for the first, 138 to 141 °C for the second.

Compared with `COC(=O)C(OC(=O)c1ccc(C(=O)O)cc1)C(=O)OC`, `NCCC(C(N)=O)c1ccc(O)cc1` (configuration not stated) is higher in melting point: 104 to 107 °C for the first, 168 to 170 °C for the second.

First: Cc1ccc(S(=O)(=O)C(CCl)Sc2cccc([N+](=O)[O-])c2)cc1 (configuration not stated)
Second: O=C(c1ccc(S)cc1)c1cccc([N+](=O)[O-])c1
The melting point of the first is lower: 92 to 101 °C for the first, 114 °C for the second.

First: CCOC(=O)c1cn(C2COC2)c2c(F)c(F)c(F)cc2c1=O
Second: CCOC(=O)C(=CNC1CC1)C(=O)c1c(N)c(F)c(F)c(OC(F)F)c1F
The melting point of the first is higher: 146 to 147 °C for the first, 103 to 104 °C for the second.

Compared with `Cc1cnc(Br)c(F)c1`, `Cc1cc(C)cc(-c2nnc(C(N)=O)o2)c1` is higher in melting point: 32 to 33 °C for the first, 230 °C for the second.

First: CC(Cl)(Cl)C(NC(=O)c1ccc(Cl)cc1)NC(=NC#N)Nc1ccc(F)nc1 (configuration not stated)
Second: CCCc1c(C(=O)C(C)C)c2ccc(C(N)=O)cc2n1Cc1ccc(Cl)cc1
The melting point of the first is higher: 206 to 207 °C for the first, 183 to 184 °C for the second.

First: O=C(Cl)C=CC=Cc1ccccc1
Second: O=C(Nc1ccccc1)OC(C1CC1)C1CC1
The melting point of the first is lower: 51 to 52 °C for the first, 92 to 94 °C for the second.

Compared with `C=CCP(=O)(c1ccccc1)c1ccccc1`, `CCOP(=O)(OCC)c1ccc2cc(I)cc(-c3cccc4ccccc34)c2n1` is higher in melting point: 94 to 96 °C for the first, 127 to 128 °C for the second.

First: Cc1c(/C=C/C(=O)c2cn(C)c3ccccc23)ncn1C(c1ccccc1)(c1ccccc1)c1ccccc1
Second: O=S(=O)(Cc1ccc(O)cc1)Nc1ncc(-c2ccc(O)cc2)nc1Cc1ccccc1
The melting point of the first is higher: 216 to 219 °C for the first, 194 to 196 °C for the second.

Compared with `O=C(O)CCCNC(=O)c1cc(Br)no1`, `NCCSc1ccc(CCC(=O)O)cc1` is lower in melting point: 140 to 141 °C for the first, 90 to 110 °C for the second.

First: COc1ccc2[nH]c(SCc3ncc(C)c(OC)c3C)nc2c1
Second: COc1cccc2c1[nH]c(=O)n1c(=O)[nH]nc21
The melting point of the first is lower: 120 to 121 °C for the first, 308 to 310 °C for the second.

Compared with `CCCCCCCCC1(C)SC(=O)C=C1OCC(=O)Nc1ccc(OC)cc1` (configuration not stated), `O=C(O)Cc1ccc2c(c1)C(=O)c1ccc(Cl)cc1CS2` is higher in melting point: 99 °C for the first, 245 to 247 °C for the second.

Going from `O=C1Cc2ccccc2SN1` to `Nc1cccc(S(=O)(=O)NCc2cccnc2)c1`, the melting point falls from 175 °C to 129 °C.

Compared with `CCC(CC)=NOC(=O)c1cc(-n2c(=O)cc(C(F)(F)F)n(C)c2=O)c(F)cc1Cl`, `CC(C)OC(=O)Cn1c(=O)n(C)c(=O)n(-c2cc(N=c3sc(=S)n4n3CCCC4)c(F)cc2Cl)c1=O` is lower in melting point: 128 to 130 °C for the first, 115 to 122 °C for the second.

First: COc1cc(N)c(Cl)cc1C(=O)N[C@H]1CCN(C2CCC3(CC2)OCC(C)(C)CO3)C[C@H]1OC (relative stereo)
Second: C=C1/C(=C\C=C2/CCC[C@@]3(C)[C@H]2CC[C@@H]3[C@]2(C)C[C@H](CC(C)(C)O)CO2)C[C@@H](O)C[C@@H]1O
The melting point of the first is higher: 188 °C for the first, 128 °C for the second.

Compared with `N[C@@H](Cc1cccc(OC(F)(F)C(F)F)c1)[C@H](O)c1ccc(Oc2ccccc2)cc1` (racemic), `CC(C)OC(=O)c1cc(-c2ccncc2)sc1-c1ccncc1` is higher in melting point: 85 to 86 °C for the first, 139 to 142 °C for the second.

`CCc1noc(-c2ccc(OCCC3CN(c4ccc(Cl)nn4)CCO3)cc2)n1` (configuration not stated) showed a melting point of 164 °C.
